Key:
Format in all cases: cell-based
[1] = tested on: OVCAR-3; test: NCI DTP cell line screen (SRB), Ovarian Cancer
Protocol: (§1) Screening of compounds 70 and 71 against several cancer cell lines The human tumor cell lines of the cancer screening panel are grown in RPMI 1640 medium containing 5% fetal bovine serum and 2 mM L-glutamine. For a typical screening experiment, cells are inoculated into 96 well microtiter plates in 100 μL at plating densities ranging from 5,000 to 40,000 cells/well depending on the doubling time of individual cell lines. After cell inoculation, the microtiter plates are incubated at 37° C., 5% CO2, 95% air and 100% relative humidity for 24 h prior to addition of experimental drugs.
(§2) After 24 h, two plates of each cell line are fixed in situ with TCA, to represent a measurement of the cell population for each cell line at the time of drug addition (Tz). Experimental drugs are solubilized in dimethyl sulfoxide at 400-fold the desired final maximum test concentration and stored frozen prior to use. At the time of drug addition, an aliquot of frozen concentrate is thawed and diluted to twice the desired final maximum test concentration with complete medium containing 50 μg/ml gentamicin. Additional four, 10-fold or ½ log serial dilutions are made to provide a total of five drug concentrations plus control. Aliquots of 100 μl of these different drug dilutions are added to the appropriate microtiter wells already containing 100 μl of medium, resulting in the required final drug concentrations.
(§3) Following drug addition, the plates are incubated for an additional 48 h at 37° C., 5% CO2, 95% air, and 100% relative humidity. For adherent cells, the assay is terminated by the addition of cold TCA. Cells are fixed in situ by the gentle addition of 50 μl of cold 50% (w/v) TCA (final concentration, 10% TCA) and incubated for 60 minutes at 4° C. The supernatant is discarded, and the plates are washed five times with tap water and air dried. Sulforhodamine B (SRB) solution (100 μl) at 0.4% (w/v) in 1% acetic acid is added to each well, and plates are incubated for 10 minutes at room temperature. After staining, unbound dye is removed by washing five times with 1% acetic acid and the plates are air dried. Bound stain is subsequently solubilized with 10 mM trizma base, and the absorbance is read on an automated plate reader at a wavelength of 515 nm. For suspension cells, the methodology is the same except that the assay is terminated by fixing settled cells at the bottom of the wells by gently adding 50 μl of 80% TCA (final concentration, 16% TCA). Using the seven absorbance measurements [time zero, (Tz), control growth, (C), and test growth in the presence of drug at the five concentration levels (Ti)], the percentage growth is calculated at each of the drug concentrations levels. Percentage growth inhibition is calculated as: [(Ti−Tz)/(C−Tz)]×100 for concentrations for which Ti>/=Tz [(Ti−Tz)/Tz]×100 for concentrations for which Ti<Tz
(§4) Three dose response parameters are calculated for each experimental agent. […] The drug concentration resulting in total growth inhibition (TGI) is calculated from Ti=Tz. […] Values are calculated for each of these three parameters if the level of activity is reached; however, if the effect is not reached or is exceeded, the value for that parameter is expressed as greater or less than the maximum or minimum concentration tested.
(§5) The methods described were used to test compounds 70 and 71 on a panel of sixty cell lines under a screening service provided by the Developmental Therapeutics Program at the National Institutes of Health. Shown in FIG. 1C are 1, RPMI-8226 leukemia cells; 2; NCI-H322M non-small cell lung cancer cells; 3, HT29 colon cancer cells; 4, U251 CNS cancer cells; 5, SK-MEL-28 melanoma cancer cells; 6, SK-OV-3 ovarian cancer cells; 7, RXF 393 renal cancer cells; 8, PC-3 prostate cancer cells; 9, MDA-MB-231 breast cancer cells.

[2] = tested on: OVCAR-5; test: NCI DTP cell line screen (SRB), Ovarian Cancer
Protocol: as §1, §2, §3, §4, §5

[3] = tested on: OVCAR-4; test: NCI DTP cell line screen (SRB), Ovarian Cancer
Protocol: as §1, §2, §3, §4, §5

[4] = tested on: NCI-H460; test: NCI DTP cell line screen (SRB), Non-Small Cell Lung Cancer
Protocol: as §1, §2, §3, §4, §5

[5] = tested on: NCI-H322M; test: as above
Protocol: as §1, §2, §3, §4, §5

[6] = tested on: MOLT-4; test: NCI DTP cell line screen (SRB), Leukemia
Protocol: as §1, §2, §3, §4, §5

[7] = tested on: SR; test: NCI DTP cell line screen (SRB), Leukemia
Protocol: as §1, §2, §3, §4, §5

[8] = tested on: K-562; test: NCI DTP cell line screen (SRB), Leukemia
Protocol: as §1, §2, §3, §4, §5

[9] = read-out: LC50 (the source's name)

What does the source list for `N=C(N)Nc1ccc(-n2nc(C(F)(F)F)cc2-c2ccc3c(ccc4ccccc43)c2)cc1` [Compound 71, 4-[5-(2-Phenanthrenyl)-3-(trifluoromethyl)-1H-pyrazol-1-yl]-phenyl-guanidine]?
GI50 [1]: 1400 nM; TGI [1]: 2.70E−06; Mean Optical Densities ([1]; Log10 Concentration −4.0): 0.131; Percent Growth ([1]; Log10 Concentration −4.0): −72%; Mean Optical Densities ([1]; Log10 Concentration −5.0): −0.043; Percent Growth ([1]; Log10 Concentration −5.0): −100%; Mean Optical Densities ([1]; Log10 Concentration −6.0): 0.770; Percent Growth ([1]; Log10 Concentration −6.0): 76%; Mean Optical Densities ([1]; Log10 Concentration −7.0): 0.792; Percent Growth ([1]; Log10 Concentration −7.0): 81%; Mean Optical Densities ([1]; Log10 Concentration −8.0): 0.833; Percent Growth ([1]; Log10 Concentration −8.0): 91%; CC50 [1, 9]: 5200 nM; GI50 [2]: 1730 nM; TGI [2]: 3.11E−06; Mean Optical Densities ([2]; Log10 Concentration −4.0): 0.474; Percent Growth ([2]; Log10 Concentration −4.0): −8%; Mean Optical Densities ([2]; Log10 Concentration −5.0): −0.033; Percent Growth ([2]; Log10 Concentration −5.0): −100%; Mean Optical Densities ([2]; Log10 Concentration −6.0): 1.559; Percent Growth ([2]; Log10 Concentration −6.0): 97%; Mean Optical Densities ([2]; Log10 Concentration −7.0): 1.437; Percent Growth ([2]; Log10 Concentration −7.0): 86%; Mean Optical Densities ([2]; Log10 Concentration −8.0): 1.538; Percent Growth ([2]; Log10 Concentration −8.0): 95%; GI50 [3]: 1310 nM; TGI [3]: 2.58E−06; Mean Optical Densities ([3]; Log10 Concentration −4.0): 0.179; Percent Growth ([3]; Log10 Concentration −4.0): −66%; Mean Optical Densities ([3]; Log10 Concentration −5.0): −0.001; Percent Growth ([3]; Log10 Concentration −5.0): −100%; Mean Optical Densities ([3]; Log10 Concentration −6.0): 0.945; Percent Growth ([3]; Log10 Concentration −6.0): 70%; Mean Optical Densities ([3]; Log10 Concentration −7.0): 0.999; Percent Growth ([3]; Log10 Concentration −7.0): 79%; Mean Optical Densities ([3]; Log10 Concentration −8.0): 1.011; Percent Growth ([3]; Log10 Concentration −8.0): 81%; CC50 [3, 9]: 5080 nM; GI50 [4]: 1640 nM; TGI [4]: 3.04E−06; Mean Optical Densities ([4]; Log10 Concentration −4.0): 0.257; Percent Growth ([4]; Log10 Concentration −4.0): −20%; Mean Optical Densities ([4]; Log10 Concentration −5.0): 0.011; Percent Growth ([4]; Log10 Concentration −5.0): −97%; Mean Optical Densities ([4]; Log10 Concentration −6.0): 1.650; Percent Growth ([4]; Log10 Concentration −6.0): 90%; Mean Optical Densities ([4]; Log10 Concentration −7.0): 1.658; Percent Growth ([4]; Log10 Concentration −7.0): 91%; Mean Optical Densities ([4]; Log10 Concentration −8.0): 1.654; Percent Growth ([4]; Log10 Concentration −8.0): 91%; GI50 [5]: 1360 nM; TGI [5]: 2.64E−06; Mean Optical Densities ([5]; Log10 Concentration −4.0): 0.257; Percent Growth ([5]; Log10 Concentration −4.0): −59%; Mean Optical Densities ([5]; Log10 Concentration −5.0): −0.052; Percent Growth ([5]; Log10 Concentration −5.0): −100%; Mean Optical Densities ([5]; Log10 Concentration −6.0): 1.031; Percent Growth ([5]; Log10 Concentration −6.0): 73%; Mean Optical Densities ([5]; Log10 Concentration −7.0): 1.049; Percent Growth ([5]; Log10 Concentration −7.0): 76%; Mean Optical Densities ([5]; Log10 Concentration −8.0): 0.988; Percent Growth ([5]; Log10 Concentration −8.0): 65%; CC50 [5, 9]: 5140 nM; GI50 [6]: 233 nM; TGI [6]: 1.98E−06; Mean Optical Densities ([6]; Log10 Concentration −4.0): 0.143; Percent Growth ([6]; Log10 Concentration −4.0): −54%; Mean Optical Densities ([6]; Log10 Concentration −5.0): 0.143; Percent Growth ([6]; Log10 Concentration −5.0): −54%; Mean Optical Densities ([6]; Log10 Concentration −6.0): 0.461; Percent Growth ([6]; Log10 Concentration −6.0): 23%; Mean Optical Densities ([6]; Log10 Concentration −7.0): 0.736; Percent Growth ([6]; Log10 Concentration −7.0): 66%; Mean Optical Densities ([6]; Log10 Concentration −8.0): 0.833; Percent Growth ([6]; Log10 Concentration −8.0): 81%; CC50 [6, 9]: 8750 nM; GI50 [7]: 38.6 nM; TGI [7]: 3.79E−07; Mean Optical Densities ([7]; Log10 Concentration −4.0): 0.287; Percent Growth ([7]; Log10 Concentration −4.0): −21%; Mean Optical Densities ([7]; Log10 Concentration −5.0): 0.234; Percent Growth ([7]; Log10 Concentration −5.0): −36%; Mean Optical Densities ([7]; Log10 Concentration −6.0): 0.254; Percent Growth ([7]; Log10 Concentration −6.0): −30%; Mean Optical Densities ([7]; Log10 Concentration −7.0): 0.583; Percent Growth ([7]; Log10 Concentration −7.0): 42%; Mean Optical Densities ([7]; Log10 Concentration −8.0): 0.688; Percent Growth ([7]; Log10 Concentration −8.0): 62%; CC50 [7, 9]: > 100000 nM; GI50 [8]: 326 nM; TGI [8]: 1.52E−06; Mean Optical Densities ([8]; Log10 Concentration −4.0): 0.119; Percent Growth ([8]; Log10 Concentration −4.0): −60%; Mean Optical Densities ([8]; Log10 Concentration −5.0): 0.126; Percent Growth ([8]; Log10 Concentration −5.0): −58%; Mean Optical Densities ([8]; Log10 Concentration −6.0): 0.438; Percent Growth ([8]; Log10 Concentration −6.0): 13%; Mean Optical Densities ([8]; Log10 Concentration −7.0): 1.283; Percent Growth ([8]; Log10 Concentration −7.0): 89%; Mean Optical Densities ([8]; Log10 Concentration −8.0): 1.338; Percent Growth ([8]; Log10 Concentration −8.0): 94%; CC50 [8, 9]: 7770 nM

From patent US8541460B2, “PDK-1/Akt signaling inhibitors” (The Ohio State University, priority 2003, dated 2013)
